Data taken from patent US9308295B2, “Oxygenated demineralized bone matrix for bone growth” (THERACELL, INC., priority 2013, dated 2016).

Legend:
[1] = system: new bone formation in subcutaneous pouch; test: Subcutaneous implantation of DBM/PFC slurry in a rat pouch, histology at 28 days; assay type: in vivo; settings: subcutaneous pocket, PFC with DBM
Description: (§1) The induction of bone growth using DBM and an oxygen carrier was previously disclosed in U.S. Publication Application No. 2012/0082704, the entire contents of which are herein incorporated by reference. In order to investigate the properties of a perfluorocarbon (PFC) oxygen carrier and to investigate the effects of DBM and a PFC in two environments having different vascularization, four different PFCs were assayed in combination with DBM. Specifically perfluorohexane, (PFC1), perfluorodecalin (PFC2), perfluorotributylamine (PFC3), and perfluoroperhydrophenanthrene (PFC4) were mixed with DBM (powder or chips) to form a DBM/PFC mixture. In some embodiments, the amount of PFC in the PFC/DBM mixture is in the range of about 32-48 weight %. Sterile saline was then added to provide a slurry with the handling characteristics of wet sand. […] This DBM/PFC slurry mixture was then applied to a subcutaneous pouch and an intramuscular pouch in the rat biceps femoris.
(§2) 0.4 ml of the perfluorocarbon was filtered through a 0.2 micron filter and added to 0.8 g of DBM (powder or chips) at the time of surgery prior to implantation in either a subcutaneous or an intramuscular pouch in the rat biceps femoris. Using a sterile spatula the mixture was gently mixed to ensure complete wetting out of the DBM powder. This was assessed visually. 1.4 ml of sterile saline was then added to the mixture and the resultant slurry was loaded into a 1 ml syringe with its end removed, resulting in a composition including PFC at about 32 to about 48% by weight. The mixture was lightly tamped and using the plunger on the syringe a 0.2 ml implant volume was defined. This was then introduced into the rat pouch. The PFCs included several perfluoroperhydrophenanthrene and perfluorodecalin that have achieved FDA clearance for use in various procedures in humans. In prior studies bone forms readily in DBM implanted in the SD […] model, and thus a human DBM was selected specifically to be from low activity level batches (1965 picograms/gram BMP2; Spec>2300) (Allosource®, Centennial, Colo.). A formulation consisting of DBM+PFC+Saline was prepared at the time of surgery. […] Perfluorohexane, (PFC1), perfluorodecalin (PFC2), and perfluoroperhydrophenanthrene (PFC4) were obtained from a GMP manufacturer and have varying levels of US Device/Drug usage. Accordingly, perfluorohexane, (PFC1), perfluorodecalin (PFC2), and perfluoroperhydrophenanthrene (PFC4) represent material and supplier suitable for use in a commercial product.
(§3) 30 SD Rats (Rattusnorvegicus, CR; NIH-RNU) received bilateral placement of test article (i.e., the DBM and PFC slurry) intramuscularly within the biceps femoris muscle or subcutaneously. Each animal acted as its own control with a saline/DBM implant in the contralateral limb. […]

[2] = system: new bone formation in intramuscular pouch in the rat biceps femoris; test: Intramuscular implantation of DBM/PFC slurry in rat biceps femoris, histology at 28 days; assay type: in vivo; settings: DBM/PFC slurry mixture in saline, intramuscular pocket in biceps femoris, control DBM alone in contralateral limb
Description: as §1, §2, §3

[3] = in vivo; cited from earlier work

Row | Structure (SMILES) | performance of the PFCs relative to each other in new bone formation [1] | histologic grade of new bone formation as compared to DBM alone [2] | retention in the liver [3]
1 | FC1(F)C(F)(F)C(F)(F)C2(F)C(F)(C1(F)F)C(F)(F)C(F)(F)C1(F)C(F)(F)C(F)(F)C(F)(F)C(F)(F)C12F (stereo not drawn) [PFC4, Perfluoroperhydrophenanthrene] | performed equally | increased histologic grade of new bone formation | –
2 | FC1(F)C(F)(F)C(F)(F)C2(F)C(F)(F)C(F)(F)C(F)(F)C(F)(F)C2(F)C1(F)F (stereo not drawn) [PFC2, Perfluorodecalin] | performed better than PFC1, PFC3, and PFC4 | increased histologic grade of new bone formation | not retained in the liver
3 | FC(F)(F)C(F)(F)C(F)(F)C(F)(F)N(C(F)(F)C(F)(F)C(F)(F)C(F)(F)F)C(F)(F)C(F)(F)C(F)(F)C(F)(F)F [PFC3, Perfluorotributylamine] | performed equally | increased histologic grade of new bone formation | –
4 | FC(F)(F)C(F)(F)C(F)(F)C(F)(F)C(F)(F)C(F)(F)F [PFC1, Perfluorohexane] | performed equally | increased histologic grade of new bone formation | –
